Tests used:
Assay type in all cases: in vivo, human
[1] = tested on: patients with progressive IMCVD; assay: Etanercept treatment of twelve patients with progressive IMCVD (25 mg subcutaneous injection twice a week)
Source text: Study subjects were suspected of having IMCVDs mainly based on (1) the presence of bilateral sensorineural healing loss or typical symptoms of Meniere's disease with a recent progressive decline, (2) a clear response to high dose prednisone therapy, and/or (3) the presence of anti-HSP70 antibodies. Reasons for attempting etanercept therapy in these study patients included: (a) failure of conventional treatments in seven, (b) side effects of conventional treatment in three, (c) the need for corticosteroid sparing agent with a quick onset of action given intolerable corticosteroid side effects and rapidly progressive worsening of hearing in three, and (d) the patient's wish to avoid conventional agents in two given their known side effects of sub-optimal efficacy profile.
Of the 12 patients, six (50%) were women. The mean age was 47 (range, 24 to 71), and the mean duration of disease prior to the etanercept therapy was 13 years (range, 2 to 25 years). All 12 patients had both ears involved, 2 had predominantly one ear involvement with good hearing in the contralateral ear, 4 had significant loss of hearing in both ears, and 6 had lost all functional hearing in one ear and were treated with etanercept for a recent progressive decline of the remaining hearing. […] Patient # 9 had symmetric polyarthralgia, morning stiffness without documented synovitis, negative rheumatoid factor and positive anti-nuclear antibodies. Four of the 10 patients who were tested had antibodies to HSP70. Previous anti-rheumatic treatments included methotrexate in five, cyclophosphamide (CYTOXAN) in two, hydroxycholoquine in one, and chlorambucil in one. All patients received a trial of diuretics and sodium-restricted diet. Two of the patients had hypertension, one had diet-controlled diabetes mellitus, one had hyperlipidemia, and one had hypothyroidism.
Etanercept was started while the patients were on high dose prednisone (except in 2 cases, who were already off prednisone because of intolerable side-effects). The prednisone dose was then tapered off over 2 to 6 weeks (except in 2 cases) depending on disease severity, response to prednisone, and the severity of side effects of prednisone. The mean duration of the etanercept treatment in the 12 patients was 7 months (82 patient-months; range, 5 to 10 months) and mean follow-up from the start date of etanercept therapy was 8 months (range: 5.66 to 12 months). Seven of the twelve patients were still on etanercept at the end of study period (mean duration of 7 months) and the remaining five discontinued the drug. Four patients discontinued the drug at the end of the target period (6 months), and one patient was switched to infliximab (Remicade™), another TNF-receptor blocker for less than desired benefit from etanercept (duration 9 months). A criteria of prednisone response was based on improvements in hearing, vertigo, and equilibrium, as previously published by Sismanis et al. (Otolaryngology—Head and Neck Surgery 116(2): 146-52, 1997).
The main outcome measurement was improvement or stabilization of hearing by air conduction pure tone audiograms and/or by word discrimination scores. A slightly modified version of improvement criteria which was previously used to evaluate the efficacy of glucocorticoids was employed for IMCVDs: >15 dB at one frequency, 10 dB at two or more consecutive frequencies, or 15% increase in word discrimination scores (Sismanis et al., supra; Rauch, Annals of the New York Academy of Sciences 830:203-210, 1997). The audiogram before initiation of etanercept was compared with the most recent audiogram. When present, vertigo, tinnitus, and fullness were assessed using a 3-level response scale: better, no change, and worse. Outcomes were based on measurements at the farthest follow-up from the initiation of etanercept or at the declaration of no improvement in hearing by etanercept therapy, whichever came first. More than a 5-month follow-up was available for all patients (range: 5-12 months) […]

patients with IMCVD [2] = assay: Initial trials of leflunomide in patients with IMCVD (20 mg orally every day); conditions: of 3 patients, 5-6 month or 1-year regimen
patients with IMCVD [3] = assay: Two other separate trials of etanercept in additional IMCVD patients
patients with IMCVD [4] = assay: Infliximab trial in patients with IMCVD (3 mg/kg intravenous infusion every two months); conditions: of 3 patients; 3 mg/kg i.v. infusion every two months, at least 6 months
Description: In addition to etanercept, another TNF antagonist, infliximab, was also tested for efficacy. In this trial, 3 patients with IMCVD were treated with 3 mg/kg body weight of Remicade™ by intravenous infusion every two months. Treatment was continued for at least 6 months, and the patients were monitored.

[5] = single patient #1 on etanercept

Cc1oncc1C(=O)Nc1ccc(C(F)(F)F)cc1 [leflunomide, N-(4′-trifluoromethylphenyl)-5-methylisoxazole-4-carboxamide]
overall hearing after leflunomide was later added, patient #8 ([1]; single patient #8, leflunomide added to etanercept): did not make any difference | hearing outcome after addition of leflunomide to etanercept, patient #11 ([1]; single patient #11, leflunomide added to etanercept after deterioration): rescued and stabilized | patients exhibiting positive results (patients with IMCVD [2]): 2 patients

etanercept
patients who had aural fullness with resolution or significant improvement of symptoms ([1]; 8 out of 9 patients who had aural fullness): 89% | patients on prednisone able to taper off prednisone without affecting their hearing ([1]; 10 patients on variable doses of prednisone to maintain hearing, after starting etanercept): Eight of the 10 | patients with improvement or stabilization of hearing and tinnitus ([1]; 11 out of 12 patients, 25 mg s.c. twice a week, follow-up 5-12 months): 92% | adverse reactions ([1]; 12 patients, 25 mg s.c. twice a week): no adverse reactions except for mild transient injection-site reactions in a few patients | patients who had vertigo with resolution or significant improvement of symptoms ([1]; Seven out of 8 patients who had vertigo): 88% | side effects during the follow-up period ([1]; follow-up period): no appreciable side effects | persistence of benefit until the last visit, time after starting etanercept ([1]; human, in vivo): 5 to 12 months | hearing fluctuation, tinnitus, aural fullness and vertigo, patient #1 [1, 5]: the fluctuation stabilized and their tinnitus, aura fullness, and vertigo resolved | overall hearing, patient #1 [1, 5]: did not have any significant improvement | tinnitus and vertigo after switching to etanercept, patient #8 ([1]; single patient #8): improvement | hearing outcome, patient #8 switched to etanercept ([1]; single patient #8, previously losing hearing on methotrexate and chlorambucil): stabilized their hearing after being switched to etanercept but at a lower level than their baseline | hearing outcome, patient #11 on etanercept ([1]; single patient #11): initial dramatic improvement after starting etanercept but deteriorated after 5 months | patients who experienced improvement in tinnitus, aural fullness, and vertigo ([1]; summary of 12 patients): approximately 90% | patients who stabilized their rapidly progressing hearing loss ([1]; summary of 12 patients): 33% | patients with remarkable improvement of hearing ([1]; summary of 12 patients): 58% | patients showing positive outcomes (patients with IMCVD [3]; in sum, out of 18 patients with IMCVD treated with etanercept (all trials)): 16 patients | outcome of IMCVD symptoms in additional patients (patients with IMCVD [3]; six additional patients in two other separate trials): all showed improvement or stabilization of IMCVD symptoms

infliximab: chimeric monoclonal antibody that binds to TNF-α, marketed as Remicade
patients exhibiting positive results (patients with IMCVD [4]): 3 patients | hearing after switch from etanercept to infliximab, patient #11 ([1]; single patient #11, switched after 9 months on etanercept): remained unchanged
